Experimental data taken from the supplement of paper PMC11208160.

Experiment: recombinant UMI read abundance after kanamycin selection (control-corrected) (log10(CPM+1)); higher = more efficient recombination; extreme values may be limits of the assay; sequences stand for … in AGTGCAGAGAAAATCGGCCAGTTTTCTCTGCCTGCAGTCCGCATGCCGTGGGACCCCTTGGGTTCTAACCTGTTGCCTAGATTTATGCAGCGGACTGCCTTTCTCCCAAAGTGATAAACCGG…AGGTTGGTTTCACT; site = the 11-nt donor
Procedure, shortened: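 For the IS621 bridge recombinase, a pooled Escherichia coli screen tested donor and donor-binding-loop pairs. Cells received the pair library together with a target plasmid encoding a fixed target and T7-inducible recombinase, then went onto IPTG (0.07 mM) plus kanamycin or unselected plates in duplicate. After PCR across the donor–target junction and sequencing, recombinant UMI counts were normalized to CPM, averaged, and scaled by control-derived factors. Each value is given as log10(CPM+1).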

Row | Sequence | recombinant UMI read abundance (log10)
1 | CGCATGCCATGGACCGGTTTTCCCGGTAATCCGTATTTGCA (site CGCATGCCTTG) | 0.808
2 | CGCCACACATGGACCGGTTTTCCCGGTAATCCGTATTTGTA (site CACCACACTTA) | 0.727
3 | CGCCACACATGGACCGGTTTTCCCGGTAATCCGTATTTGTA (site CCCCACACTTA) | 0.261
4 | CGCCACACATGGACCGGTTTTCCCGGTAATCCGTATTTGTA (site CGCCACACTTA) | 1.95
5 | CGCCACACATGGACCGGTTTTCCCGGTAATCCGTATTTGTA (site CTCCACACTTA) | 0.241
6 | CGCCATACATGGACCGGTTTTCCCGGTAATCCGTATTTGCT (site CGCCATACTAG) | 1.64
7 | CGCCATACATGGACCGGTTTTCCCGGTAATCCGTATTTGCT (site CGCCCTACTAG) | 0.00847
8 | CGCCATACATGGACCGGTTTTCCCGGTAATCCGTATTTGCT (site CGCCGTACTAG) | 0
9 | CGCCATACATGGACCGGTTTTCCCGGTAATCCGTATTTGCT (site CGCCTTACTAG) | 0.046
10 | CGCCGCTCATGGACCGGTTTTCCCGGTAATCCGTATTTGCC (site CGCCGCTCTGG) | 2.47
11 | CGCCTAACATGGACCGGTTTTCCCGGTAATCCGTATTTGGG (site CGCCTAACTCC) | 0.0879
12 | CGCGAACCATGGACCGGTTTTCCCGGTAATCCGTATTTGAT (site CGAGAACCTAT) | 0
13 | CGCGAACCATGGACCGGTTTTCCCGGTAATCCGTATTTGAT (site CGCGAACCTAT) | 0
14 | CGCGAACCATGGACCGGTTTTCCCGGTAATCCGTATTTGAT (site CGGGAACCTAT) | 0
15 | CGCGAACCATGGACCGGTTTTCCCGGTAATCCGTATTTGAT (site CGTGAACCTAT) | 0
16 | CGCGATTCATGGACCGGTTTTCCCGGTAATCCGTATTTGGC (site CGCGATTCTGC) | 1.61
17 | CGCGCGCCATGGACCGGTTTTCCCGGTAATCCGTATTTGAG (site CGCGCGCCTCT) | 0.0359
18 | CGCGGTACATGGACCGGTTTTCCCGGTAATCCGTATTTGCT (site CGCAGTACTAG) | 1.64
19 | CGCGGTACATGGACCGGTTTTCCCGGTAATCCGTATTTGCT (site CGCCGTACTAG) | 0
20 | CGCGGTACATGGACCGGTTTTCCCGGTAATCCGTATTTGCT (site CGCGGTACTAG) | 1.92
21 | CGCGGTACATGGACCGGTTTTCCCGGTAATCCGTATTTGCT (site CGCTGTACTAG) | 0.467
22 | CGCGTCACATGGACCGGTTTTCCCGGTAATCCGTATTTGAC (site CGCGTCACTGT) | 2.44
23 | CGCGTGTCATGGACCGGTTTTCCCGGTAATCCGTATTTGAC (site CGCGTGTCTGT) | 0

Row | Sequence | recombinant UMI read abundance (log10)
24 | CGCTAATCATGGACCGGTTTTCCCGGTAATCCGTATTTGCT (site CGATCATCTAG) | 0
25 | CGCTAATCATGGACCGGTTTTCCCGGTAATCCGTATTTGCT (site CGCTAATCTAG) | 1.97
26 | CGCTACACATGGACCGGTTTTCCCGGTAATCCGTATTTGCT (site CACTACACTAG) | 1.32
27 | CGCTACACATGGACCGGTTTTCCCGGTAATCCGTATTTGCT (site CCCTACACTAG) | 1.29
28 | CGCTACACATGGACCGGTTTTCCCGGTAATCCGTATTTGCT (site CGCTACACTAG) | 2.9
29 | CGCTACACATGGACCGGTTTTCCCGGTAATCCGTATTTGCT (site CTCTACACTAG) | 0.92
30 | CGCTAGGCATGGACCGGTTTTCCCGGTAATCCGTATTTGGT (site AGCTAGGCTAC) | 0.0207
31 | CGCTAGGCATGGACCGGTTTTCCCGGTAATCCGTATTTGGT (site CGCTAGGCTAC) | 0.0166
32 | CGCTAGGCATGGACCGGTTTTCCCGGTAATCCGTATTTGGT (site GGCTAGGCTAC) | 0.00627
33 | CGCTAGGCATGGACCGGTTTTCCCGGTAATCCGTATTTGGT (site TGCTAGGCTAC) | 0.0198
34 | CGCTCAACATGGACCGGTTTTCCCGGTAATCCGTATTTGCC (site CGCTCAACTGG) | 0.429
35 | CGCTCATCATGGACCGGTTTTCCCGGTAATCCGTATTTGCG (site CGATCATCTAG) | 0
36 | CGCTCATCATGGACCGGTTTTCCCGGTAATCCGTATTTGCG (site CGCTCATCTCG) | 0.716
37 | CGCTCATCATGGACCGGTTTTCCCGGTAATCCGTATTTGCT (site CGATCATCTAG) | 0
38 | CGCTCATCATGGACCGGTTTTCCCGGTAATCCGTATTTGCT (site CGCTCATCTAG) | 2.6
39 | CGCTCATCATGGACCGGTTTTCCCGGTAATCCGTATTTGCT (site CGGTCATCTAG) | 0
40 | CGCTCATCATGGACCGGTTTTCCCGGTAATCCGTATTTGCT (site CGTTCATCTAG) | 1.35
41 | CGCTCGACATGGACCGGTTTTCCCGGTAATCCGTATTTGTT (site CGATCGACTAA) | 0
42 | CGCTCGACATGGACCGGTTTTCCCGGTAATCCGTATTTGTT (site CGCTCGACTAA) | 0
43 | CGCTCGACATGGACCGGTTTTCCCGGTAATCCGTATTTGTT (site CGGTCGACTAA) | 0
44 | CGCTCGACATGGACCGGTTTTCCCGGTAATCCGTATTTGTT (site CGTTCGACTAA) | 0
45 | CGCTGGCCATGGACCGGTTTTCCCGGTAATCCGTATTTGCT (site CGCTGGCCTAG) | 0.278
46 | CGCTTGGCATGGACCGGTTTTCCCGGTAATCCGTATTTGCT (site CGATTGGCTAG) | 0

Row | Sequence | recombinant UMI read abundance (log10)
47 | CGCTTGGCATGGACCGGTTTTCCCGGTAATCCGTATTTGCT (site CGCTTGGCTAG) | 0
48 | CGCTTGGCATGGACCGGTTTTCCCGGTAATCCGTATTTGCT (site CGGTTGGCTAG) | 0
49 | CGCTTGGCATGGACCGGTTTTCCCGGTAATCCGTATTTGCT (site CGTTTGGCTAG) | 0
50 | CGCTTGTCATGGACCGGTTTTCCCGGTAATCCGTATTTGCG (site CGCTTGTCTCG) | 1.46
51 | CGGAAATCATGGACCGGTTTTCCCGGTAATCCGTATTTGCT (site CGGAAATCTAG) | 2.06
52 | CGGAAATCATGGACCGGTTTTCCCGGTAATCCGTATTTGCT (site CGGACATCTAG) | 0.293
53 | CGGAAATCATGGACCGGTTTTCCCGGTAATCCGTATTTGCT (site CGGAGATCTAG) | 0.215
54 | CGGAAATCATGGACCGGTTTTCCCGGTAATCCGTATTTGCT (site CGGATATCTAG) | 0
55 | CGGAACGCATGGACCGGTTTTCCCGGTAATCCGTATTTGTT (site CGGAACGCTAA) | 3.15
56 | CGGAACGCATGGACCGGTTTTCCCGGTAATCCGTATTTGTT (site CGGAATCCTAA) | 0.0213
57 | CGGAAGACATGGACCGGTTTTCCCGGTAATCCGTATTTGTT (site CGGAAGACTAA) | 2.3
58 | CGGAAGACATGGACCGGTTTTCCCGGTAATCCGTATTTGTT (site CGGAATCCTAA) | 0.00737
59 | CGGAAGCCATGGACCGGTTTTCCCGGTAATCCGTATTTGAT (site CGGAAGCCTAT) | 0.713
60 | CGGAAGCCATGGACCGGTTTTCCCGGTAATCCGTATTTGAT (site CGGAATCCTAA) | 0
61 | CGGAAGCCATGGACCGGTTTTCCCGGTAATCCGTATTTGCA (site AGGAAGACTTG) | 0
62 | CGGAAGCCATGGACCGGTTTTCCCGGTAATCCGTATTTGCA (site CGGAAGCCTTG) | 0
63 | CGGAATCCATGGACCGGTTTTCCCGGTAATCCGTATTTGCA (site CGGAATCCTAA) | 0
64 | CGGAATCCATGGACCGGTTTTCCCGGTAATCCGTATTTGCA (site CGGAATCCTTG) | 0.628
65 | CGGAATTCATGGACCGGTTTTCCCGGTAATCCGTATTTGAA (site CGGAATTCTTT) | 1.67
66 | CGGAATTCATGGACCGGTTTTCCCGGTAATCCGTATTTGTA (site CGGAATCCTAA) | 0.00369
67 | CGGAATTCATGGACCGGTTTTCCCGGTAATCCGTATTTGTA (site CGGAATTCTTA) | 2.78
68 | CGGACAACATGGACCGGTTTTCCCGGTAATCCGTATTTGCT (site CGGACAACTAG) | 1.89
